Reference: publication PMC8710044 (Biochemical pharmacology, 2021)

T1: CYP2C8 (Homo sapiens, UniProt P10632)
T1 sequence (P10632 1-490): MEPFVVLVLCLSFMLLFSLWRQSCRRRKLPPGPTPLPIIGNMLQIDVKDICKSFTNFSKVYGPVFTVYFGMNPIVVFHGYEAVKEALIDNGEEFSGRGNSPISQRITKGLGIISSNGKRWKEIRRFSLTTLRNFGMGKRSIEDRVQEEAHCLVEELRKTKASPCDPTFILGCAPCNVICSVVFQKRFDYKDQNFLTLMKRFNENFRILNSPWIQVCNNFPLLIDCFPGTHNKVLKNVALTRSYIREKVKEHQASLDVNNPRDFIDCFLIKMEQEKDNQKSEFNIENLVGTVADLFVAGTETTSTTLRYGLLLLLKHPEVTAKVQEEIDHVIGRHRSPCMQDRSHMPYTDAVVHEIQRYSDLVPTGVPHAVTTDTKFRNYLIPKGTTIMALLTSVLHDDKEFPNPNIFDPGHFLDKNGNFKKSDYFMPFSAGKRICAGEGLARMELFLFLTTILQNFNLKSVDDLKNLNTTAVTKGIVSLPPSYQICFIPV

B1: CYP2C9 (Homo sapiens) (protein)
chain: MDSLVVLVLCLSCLLLLSLWRQSSGRGKLPPGPTPLPVIGNILQIGIKDISKSLTNLSKVYGPVFTLYFGLKPIVVLHGYEAVKEALIDLGEEFSGRGIFPLAERANRGFGIVFSNGKKWKEIRRFSLMTLRNFGMGKRSIEDRVQEEARCLVEELRKTKASPCDPTFILGCAPCNVICSIIFHKRFDYKDQQFLNLMEKLNENIKILSSPWIQICNNFSPIIDYFPGTHNKLLKNVAFMKSYILEKVKEHQESMDMNNPQDFIDCFLMKMEKEKHNQPSEFTIESLENTAVDLFGAGTETTSTTLRYALLLLLKHPEVTAKVQEEIERVIGRNRSPCMQDRSHMPYTDAVVHEVQRYIDLLPTSLPHAVTCDIKFRNYLIPKGTTILISLTSVLHDNKEFPNPEMFDPHHFLDEGGNFKKSKYFMPFSAGKRICVGEALAGMELFLFLTSILQNFNLKSLVDPKNLDTTPVVNGFASVPPFYQLCFIPV
B2: CYP2C8 (Homo sapiens) (protein)
chain: T1 sequence (P10632 1-490)

What was measured:
CYP2C19 = CYP2C19 (Homo sapiens, UniProt P33261); test: Relative CYP contribution to hepatic bioactivation and detoxification, CYP2C19; format: in vitro ADME; conditions: for Bioactivation Percent: CYP2C19 contribution to total CLbioact of the NSAID; for Detoxification Percent: CYP2C19 contribution to total CLdetox of the NSAID
Sequence of CYP2C19 (P33261 whole entry): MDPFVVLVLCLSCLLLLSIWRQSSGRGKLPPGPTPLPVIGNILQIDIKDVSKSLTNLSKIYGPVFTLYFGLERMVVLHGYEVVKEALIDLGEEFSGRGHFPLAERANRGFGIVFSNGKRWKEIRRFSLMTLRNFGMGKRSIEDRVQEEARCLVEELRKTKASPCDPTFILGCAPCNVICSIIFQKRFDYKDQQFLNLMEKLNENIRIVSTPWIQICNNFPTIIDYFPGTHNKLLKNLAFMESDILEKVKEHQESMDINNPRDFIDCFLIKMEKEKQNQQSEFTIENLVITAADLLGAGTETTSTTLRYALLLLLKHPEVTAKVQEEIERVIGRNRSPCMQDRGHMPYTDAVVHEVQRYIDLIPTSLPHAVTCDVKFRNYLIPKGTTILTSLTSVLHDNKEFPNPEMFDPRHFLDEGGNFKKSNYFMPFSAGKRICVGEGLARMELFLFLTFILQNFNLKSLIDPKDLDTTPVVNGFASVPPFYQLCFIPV

CYP3A4 = CYP3A4 (Homo sapiens, UniProt P08684); test: Relative CYP contribution to hepatic bioactivation and detoxification, CYP3A4; format: in vitro ADME; conditions: for Bioactivation Percent: CYP3A4 contribution to total CLbioact of the NSAID; for Detoxification Percent: CYP3A4 contribution to total CLdetox of the NSAID
Sequence of CYP3A4 (P08684 whole entry): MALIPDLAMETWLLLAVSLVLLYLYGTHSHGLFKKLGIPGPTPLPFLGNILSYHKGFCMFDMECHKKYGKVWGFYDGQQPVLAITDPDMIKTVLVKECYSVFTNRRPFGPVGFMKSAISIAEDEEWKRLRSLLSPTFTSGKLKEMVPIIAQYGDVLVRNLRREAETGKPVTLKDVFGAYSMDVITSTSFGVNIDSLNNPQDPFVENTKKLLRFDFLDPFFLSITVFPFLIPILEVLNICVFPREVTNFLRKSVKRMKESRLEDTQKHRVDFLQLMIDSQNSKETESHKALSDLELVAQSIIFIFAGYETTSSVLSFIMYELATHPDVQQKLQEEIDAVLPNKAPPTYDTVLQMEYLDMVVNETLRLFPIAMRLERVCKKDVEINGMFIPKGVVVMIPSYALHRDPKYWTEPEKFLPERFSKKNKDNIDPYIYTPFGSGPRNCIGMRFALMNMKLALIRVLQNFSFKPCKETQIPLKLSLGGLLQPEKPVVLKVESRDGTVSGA

CYP2C9 = CYP2C9 (Homo sapiens, UniProt P11712); test: Relative CYP contribution to hepatic bioactivation and detoxification, CYP2C9; format: in vitro ADME; conditions: for Bioactivation Percent: CYP2C9 contribution to total CLbioact of the NSAID; for Detoxification Percent: CYP2C9 contribution to total CLdetox of the NSAID
CYP2C8 = biological target: T1, CYP2C8; test: Relative CYP contribution to hepatic bioactivation and detoxification, CYP2C8; format: in vitro ADME; conditions: for Bioactivation Percent: CYP2C8 contribution to total CLbioact of the NSAID; for Detoxification Percent: CYP2C8 contribution to total CLdetox of the NSAID
[1] = substrate: Cc1ccc(Nc2c(F)cccc2Cl)c(CC(=O)O)c1; test: cells, lysate or membranes named; conditions: other: CYP2C9; adduct Unk; 95% CI in parentheses; pH 7.4
[2] = substrate: Cc1cccc(Nc2ccccc2C(=O)O)c1C; test: cells, lysate or membranes named; conditions: other: CYP2C9, path 1, 2, 95% CI in parentheses, pH 7.4
[3] = substrate: Cc1c(Cl)cccc1Nc1ccccc1C(=O)O; test: cells, lysate or membranes named; conditions: other: CYP2C9, path 1, 2, 95% CI in parentheses, pH 7.4
[4] = substrate: Cc1ccc(Cl)c(Nc2ccccc2C(=O)O)c1Cl; test: cells, lysate or membranes named; conditions: other: CYP2C9; metabolite M9, path 4; 95% CI in parentheses; pH 7.4
[5] = substrate: O=C(O)COC(=O)Cc1ccccc1Nc1c(Cl)cccc1Cl; test: cells, lysate or membranes named; conditions: other: CYP2C9, 95% CI in parentheses, pH 7.4
[6] = substrate: Cc1cccc(Nc2ccccc2C(=O)O)c1C; test: Steady-state bioactivation kinetics; format: in vitro ADME, human; conditions: other: CYP2C8, path 1, 2, 95% CI in parentheses, pH 7.4
[7] = substrate: O=C(O)COC(=O)Cc1ccccc1Nc1c(Cl)cccc1Cl; test: Steady-state bioactivation kinetics; format: in vitro ADME, human; conditions: other: CYP2C8, 95% CI in parentheses, pH 7.4
[8] = substrate: Cc1cccc(Nc2ccccc2C(=O)O)c1C; test: Steady-state kinetics of overall NSAID metabolism; format: in vitro ADME, human; conditions: other: overall metabolism (depletion) by CYP2C8; 95% CI in parentheses; pH 7.4
[9] = substrate: O=C(O)COC(=O)Cc1ccccc1Nc1c(Cl)cccc1Cl; test: Steady-state kinetics of overall NSAID metabolism; format: in vitro ADME, human; conditions: other: overall metabolism (depletion) by CYP2C8; 95% CI in parentheses; pH 7.4

| Molecule | Bioactivation Percent (CYP2C19) | Detoxification Percent (CYP2C19) | Bioactivation Percent (CYP3A4) | Detoxification Percent (CYP3A4) | Bioactivation Percent (CYP2C9) | Detoxification Percent (CYP2C9) | other results |
| --- | --- | --- | --- | --- | --- | --- | --- |
| O=C(O)c1ccccc1Nc1cccc(C(F)(F)F)c1 [FLU, flufenamic acid] | 1.7% | 3.4% | 55.9% | 69.0% | 42.3% | 27.6% |  |
| Cc1cccc(Nc2ccccc2C(=O)O)c1C [MEF, mefenamic acid] | 1.2% | 2.1% | 6.0% | 56.4% | 91.4% | 36.9% | Bioactivation Percent (CYP2C8): 1.4%; Detoxification Percent (CYP2C8): 4.6% |
| Cc1c(Cl)cccc1Nc1ccccc1C(=O)O [TOL, tolfenamic acid] | 2.0% | 3.6% | 25.2% | 60.9% | 72.8% | 35.5% |  |
| Cc1ccc(Cl)c(Nc2ccccc2C(=O)O)c1Cl [MEC, meclofenamic acid] | 19.6% | 1.9% | 24.7% | 61.6% | 55.7% | 36.5% |  |
| O=C(O)COC(=O)Cc1ccccc1Nc1c(Cl)cccc1Cl [ACE, aceclofenac] | 2.0% | 1.6% | 1.2% | 60.4% | 94.3% | 30.7% | Bioactivation Percent (CYP2C8): 2.5%; Detoxification Percent (CYP2C8): 7.3% |
| Cc1ccc(Nc2c(F)cccc2Cl)c(CC(=O)O)c1 [LUM, lumiracoxib] | 0.5% | 8.6% | 3.7% | 68.0% | 95.8% | 23.4% |  |
| B1 |  |  |  |  |  |  | Km [1]: 27.0 (22.4–32.3) μM; kcat [1]: 23.5 (22.5–24.5) pmol/min/nmol protein; Km ([2]; metabolite M2/M4a): 17.5 (13.4–22.7) μM; kcat ([2]; metabolite M2/M4a): 25.6 (24.2–27.0) pmol/min/nmol protein; Km ([2]; metabolite M2/M4b): 12.9 (10.1–16.5) μM; kcat ([2]; metabolite M2/M4b): 35.7 (34.0–37.4) pmol/min/nmol protein; Km ([3]; metabolite M2/M4a): 6.5 (5.2–8.0) μM; kcat ([3]; metabolite M2/M4a): 15.2 (14.6–15.9) pmol/min/nmol protein; Km ([3]; metabolite M2/M4b): 6.9 (5.8–8.8) μM; kcat ([3]; metabolite M2/M4b): 16.1 (15.6–16.7) pmol/min/nmol protein; Km [4]: 5.5 (4.3–7.1) μM; kcat [4]: 5.2 (5.0–5.4) pmol/min/nmol protein; Km ([5]; adduct Unk): 7.9 (5.8–10.7) μM; kcat ([5]; adduct Unk): 10.2 (9.7–10.9) pmol/min/nmol protein; Km ([5]; metabolite M9, path 4): 23.8 (19.4–28.9) μM; kcat ([5]; metabolite M9, path 4): 68.5 (65.0–72.2) pmol/min/nmol protein |
| B2 |  |  |  |  |  |  | Km ([6]; metabolite M2/M4a): 51.9 µM; kcat ([6]; metabolite M2/M4a): 5.6 (5.5–5.8) pmol/min/nmol protein; Km ([6]; metabolite M2/M4b): 75.6 µM; kcat ([6]; metabolite M2/M4b): 5.4 (5.2–5.5) pmol/min/nmol protein; Km ([7]; metabolite M2/M4, path 1, 2): 6.3 µM; kcat ([7]; metabolite M2/M4, path 1, 2): 1.4 (1.3–1.5) pmol/min/nmol protein; Km ([7]; metabolite M6, path 3): 9.4 µM; kcat ([7]; metabolite M6, path 3): 4.0 (3.9–4.1) pmol/min/nmol protein; Km ([7]; metabolite M9, path 4): 6.7 µM; kcat ([7]; metabolite M9, path 4): 1.7 (1.6–1.8) pmol/min/nmol protein; Km [8]: 160 (140–190) μM; kcat [8]: 2390 (2230–2560) pmol/min/nmol protein; Km [9]: 110 (96–130) μM; kcat [9]: 1740 (1640–1850) pmol/min/nmol protein |
